Experimental data as given in patent US20040185110A1, “Formulations of low solubility bioactive agents and processes for making the same” (priority 2002, published 2004).

Assay: Solubility of Compound A
Assay type: physicochemical
Description: The present invention addresses the prior art issues of low bioavailability of certain drugs such as COX-2 selective inhibitors useful for the treatment of, for example, arthritis and rheumatic pain. […] Compound A, a COX-2 selective inhibitor, is a white to off-white odorless crystalline, anhydrous powder. At room temperature it is soluble in methylene chloride, and acetonitrile. […] The aqueous solubility of the drug is less than 2 µg/mL at 22 degrees Celsius at pH 6.2.

## CS(=O)(=O)c1ccc(/C(=C2\CCOC2=O)c2ccc(Br)cc2)cc1 [Compound A, (Z)-3-[1-(4-bromophenyl)-1-(4-methylsulfonylphenyl)methylidine]-dihydrofuran-2-one]
Room temperature
  solubility in methylene chloride, and acetonitrile: soluble
water
  solubility in water: poorly soluble
